The kinase profiling compilation of Christmann-Franck et al. (2016)
Values joined by “and” are separate entries in the source; they are usually repeats but may differ in a detail not shown here. Equal values may be shown once.

Key:
Assay in all cases: radiometric filter-binding kinase assay, Kinase HotSpot
Settings in all cases: compound 0.5 µM; ATP 10 µM
CAMKK1 (human) = CAMKK1 (human) (UniProt Q8N5S9)
VRK1 (human) = VRK1 (human) (UniProt Q99986)
PTK2B (human) = PTK2B (human) (UniProt Q14289)
PRKG1 (human) = PRKG1 (human) (UniProt Q13976)
Chain of PRKG1 (human) (Q13976 whole entry, looked up): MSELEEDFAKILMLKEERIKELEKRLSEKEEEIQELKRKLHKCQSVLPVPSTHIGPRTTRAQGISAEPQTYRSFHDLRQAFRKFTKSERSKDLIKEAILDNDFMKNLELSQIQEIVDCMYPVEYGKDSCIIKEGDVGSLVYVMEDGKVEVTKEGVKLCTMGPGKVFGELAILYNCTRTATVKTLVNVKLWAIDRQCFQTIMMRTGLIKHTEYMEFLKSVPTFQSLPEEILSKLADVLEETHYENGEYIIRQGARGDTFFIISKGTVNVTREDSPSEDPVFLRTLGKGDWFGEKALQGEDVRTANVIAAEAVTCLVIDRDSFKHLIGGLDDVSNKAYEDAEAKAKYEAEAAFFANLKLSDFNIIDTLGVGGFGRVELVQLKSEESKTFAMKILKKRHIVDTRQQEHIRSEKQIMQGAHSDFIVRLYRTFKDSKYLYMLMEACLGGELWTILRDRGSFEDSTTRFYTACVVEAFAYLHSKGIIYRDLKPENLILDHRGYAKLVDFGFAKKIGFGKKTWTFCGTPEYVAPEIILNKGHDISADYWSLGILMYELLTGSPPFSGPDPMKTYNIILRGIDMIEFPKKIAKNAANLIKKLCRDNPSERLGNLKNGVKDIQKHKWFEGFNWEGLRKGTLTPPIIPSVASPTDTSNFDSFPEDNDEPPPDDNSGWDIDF

FGFR3 (human) = FGFR3 (human) (UniProt P22607)
AKT3 (human) = AKT3 (human) (UniProt Q9Y243)
BMX (human) = BMX (human) (UniProt P51813)
PNCK (human) = PNCK (human) (UniProt Q6P2M8)
ABL2 (human) = ABL2 (human) (UniProt P42684)
SRPK1 (human) = SRPK1 (human) (UniProt Q96SB4)
LIMK1 (human) = LIMK1 (human) (UniProt P53667)
DYRK4 (human) = DYRK4 (human) (UniProt Q9NR20)
Chain of DYRK4 (human) (Q9NR20 whole entry, looked up): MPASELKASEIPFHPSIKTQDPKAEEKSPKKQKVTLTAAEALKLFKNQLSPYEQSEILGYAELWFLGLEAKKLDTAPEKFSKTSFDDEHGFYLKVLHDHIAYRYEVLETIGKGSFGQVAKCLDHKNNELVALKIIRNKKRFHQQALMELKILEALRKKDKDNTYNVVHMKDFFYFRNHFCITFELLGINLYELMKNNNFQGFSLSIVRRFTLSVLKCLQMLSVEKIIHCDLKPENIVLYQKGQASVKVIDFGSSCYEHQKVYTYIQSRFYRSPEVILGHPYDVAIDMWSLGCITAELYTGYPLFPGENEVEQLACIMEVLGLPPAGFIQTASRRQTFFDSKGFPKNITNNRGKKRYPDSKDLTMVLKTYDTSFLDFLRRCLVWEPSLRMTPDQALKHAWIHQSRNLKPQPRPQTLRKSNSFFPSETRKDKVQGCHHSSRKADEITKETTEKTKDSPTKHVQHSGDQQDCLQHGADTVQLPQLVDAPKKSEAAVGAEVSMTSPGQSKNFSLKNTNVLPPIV

EPHA1 (human) = EPHA1 (human) (UniProt P21709)
DCLK2 (human) = DCLK2 (human) (UniProt Q8N568)
Chain of DCLK2 (human) (Q8N568 whole entry, looked up): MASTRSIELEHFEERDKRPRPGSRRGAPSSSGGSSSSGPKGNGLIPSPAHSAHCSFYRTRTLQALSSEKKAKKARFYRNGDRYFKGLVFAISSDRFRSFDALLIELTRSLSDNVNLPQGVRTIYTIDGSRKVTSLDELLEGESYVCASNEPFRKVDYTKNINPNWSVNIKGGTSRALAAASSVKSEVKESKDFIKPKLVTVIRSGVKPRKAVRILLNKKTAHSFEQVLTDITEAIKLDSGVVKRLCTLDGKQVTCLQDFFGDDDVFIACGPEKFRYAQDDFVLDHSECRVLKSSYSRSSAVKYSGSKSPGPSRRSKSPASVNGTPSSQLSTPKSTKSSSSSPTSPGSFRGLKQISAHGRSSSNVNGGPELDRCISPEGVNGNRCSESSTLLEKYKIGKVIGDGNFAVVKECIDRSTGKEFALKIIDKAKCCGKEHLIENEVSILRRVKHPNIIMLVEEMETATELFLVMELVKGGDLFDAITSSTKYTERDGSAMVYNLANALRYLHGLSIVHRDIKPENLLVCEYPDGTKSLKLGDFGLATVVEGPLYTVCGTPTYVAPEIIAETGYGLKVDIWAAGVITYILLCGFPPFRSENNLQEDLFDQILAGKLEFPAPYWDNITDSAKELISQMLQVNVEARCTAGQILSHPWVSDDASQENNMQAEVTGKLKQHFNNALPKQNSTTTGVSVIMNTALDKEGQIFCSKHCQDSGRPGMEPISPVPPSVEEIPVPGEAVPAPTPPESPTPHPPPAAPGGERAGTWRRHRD

AURKB (human) = AURKB (human) (UniProt Q96GD4)
FYN (human) = FYN (human) (UniProt P06241)
CSNK2A2 (human) = CSNK2A2 (human) (UniProt P19784)
PASK (human) = PASK (human) (UniProt Q96RG2)
Chain of PASK (human) (Q96RG2 whole entry, looked up): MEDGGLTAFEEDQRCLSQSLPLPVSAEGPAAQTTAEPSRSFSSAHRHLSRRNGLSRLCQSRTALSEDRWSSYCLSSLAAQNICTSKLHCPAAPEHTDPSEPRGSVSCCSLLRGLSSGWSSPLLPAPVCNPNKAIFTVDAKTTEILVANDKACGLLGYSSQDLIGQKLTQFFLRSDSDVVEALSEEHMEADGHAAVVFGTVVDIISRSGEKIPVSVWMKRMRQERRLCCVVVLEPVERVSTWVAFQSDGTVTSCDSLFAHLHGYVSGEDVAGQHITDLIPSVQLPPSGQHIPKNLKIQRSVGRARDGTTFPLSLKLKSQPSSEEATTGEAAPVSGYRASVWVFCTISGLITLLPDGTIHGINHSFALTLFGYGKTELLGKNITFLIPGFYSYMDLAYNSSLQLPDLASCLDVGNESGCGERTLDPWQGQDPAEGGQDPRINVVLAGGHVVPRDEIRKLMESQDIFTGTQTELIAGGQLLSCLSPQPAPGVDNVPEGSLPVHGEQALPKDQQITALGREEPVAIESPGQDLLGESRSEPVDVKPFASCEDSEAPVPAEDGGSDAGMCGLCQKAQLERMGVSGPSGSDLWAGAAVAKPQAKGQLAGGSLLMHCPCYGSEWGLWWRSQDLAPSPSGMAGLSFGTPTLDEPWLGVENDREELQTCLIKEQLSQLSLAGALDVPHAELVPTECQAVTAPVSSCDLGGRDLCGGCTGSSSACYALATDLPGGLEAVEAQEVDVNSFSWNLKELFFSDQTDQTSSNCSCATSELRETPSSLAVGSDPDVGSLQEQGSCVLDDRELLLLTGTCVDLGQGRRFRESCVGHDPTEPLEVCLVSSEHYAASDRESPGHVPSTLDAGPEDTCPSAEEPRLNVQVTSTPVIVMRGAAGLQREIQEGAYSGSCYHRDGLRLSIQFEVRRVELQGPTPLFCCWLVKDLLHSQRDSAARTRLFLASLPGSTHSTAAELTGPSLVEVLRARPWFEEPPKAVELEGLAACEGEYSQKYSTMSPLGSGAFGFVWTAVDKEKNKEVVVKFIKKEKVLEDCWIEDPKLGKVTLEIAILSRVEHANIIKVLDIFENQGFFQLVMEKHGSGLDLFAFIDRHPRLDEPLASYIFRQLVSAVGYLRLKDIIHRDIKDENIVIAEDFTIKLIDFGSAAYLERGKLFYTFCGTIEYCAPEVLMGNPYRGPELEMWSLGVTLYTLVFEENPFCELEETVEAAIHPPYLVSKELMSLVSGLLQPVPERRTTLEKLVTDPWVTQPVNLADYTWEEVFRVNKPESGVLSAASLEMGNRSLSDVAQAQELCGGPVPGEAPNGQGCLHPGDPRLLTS

NUAK2 (human) = NUAK2 (human) (UniProt Q9H093)
PIM3 (human) = PIM3 (human) (UniProt Q86V86)
CSNK1G1 (human) = CSNK1G1 (human) (UniProt Q9HCP0)
STK16 (human) = STK16 (human) (UniProt O75716)
GSG2 (human) = GSG2 (human) (UniProt Q8TF76)
FRK (human) = FRK (human) (UniProt P42685)
[1] = biological target: TYK2 JH1 catalytic (human) (UniProt P29597)
Chain of TYK2 JH1 catalytic (human) (P29597 whole entry, looked up): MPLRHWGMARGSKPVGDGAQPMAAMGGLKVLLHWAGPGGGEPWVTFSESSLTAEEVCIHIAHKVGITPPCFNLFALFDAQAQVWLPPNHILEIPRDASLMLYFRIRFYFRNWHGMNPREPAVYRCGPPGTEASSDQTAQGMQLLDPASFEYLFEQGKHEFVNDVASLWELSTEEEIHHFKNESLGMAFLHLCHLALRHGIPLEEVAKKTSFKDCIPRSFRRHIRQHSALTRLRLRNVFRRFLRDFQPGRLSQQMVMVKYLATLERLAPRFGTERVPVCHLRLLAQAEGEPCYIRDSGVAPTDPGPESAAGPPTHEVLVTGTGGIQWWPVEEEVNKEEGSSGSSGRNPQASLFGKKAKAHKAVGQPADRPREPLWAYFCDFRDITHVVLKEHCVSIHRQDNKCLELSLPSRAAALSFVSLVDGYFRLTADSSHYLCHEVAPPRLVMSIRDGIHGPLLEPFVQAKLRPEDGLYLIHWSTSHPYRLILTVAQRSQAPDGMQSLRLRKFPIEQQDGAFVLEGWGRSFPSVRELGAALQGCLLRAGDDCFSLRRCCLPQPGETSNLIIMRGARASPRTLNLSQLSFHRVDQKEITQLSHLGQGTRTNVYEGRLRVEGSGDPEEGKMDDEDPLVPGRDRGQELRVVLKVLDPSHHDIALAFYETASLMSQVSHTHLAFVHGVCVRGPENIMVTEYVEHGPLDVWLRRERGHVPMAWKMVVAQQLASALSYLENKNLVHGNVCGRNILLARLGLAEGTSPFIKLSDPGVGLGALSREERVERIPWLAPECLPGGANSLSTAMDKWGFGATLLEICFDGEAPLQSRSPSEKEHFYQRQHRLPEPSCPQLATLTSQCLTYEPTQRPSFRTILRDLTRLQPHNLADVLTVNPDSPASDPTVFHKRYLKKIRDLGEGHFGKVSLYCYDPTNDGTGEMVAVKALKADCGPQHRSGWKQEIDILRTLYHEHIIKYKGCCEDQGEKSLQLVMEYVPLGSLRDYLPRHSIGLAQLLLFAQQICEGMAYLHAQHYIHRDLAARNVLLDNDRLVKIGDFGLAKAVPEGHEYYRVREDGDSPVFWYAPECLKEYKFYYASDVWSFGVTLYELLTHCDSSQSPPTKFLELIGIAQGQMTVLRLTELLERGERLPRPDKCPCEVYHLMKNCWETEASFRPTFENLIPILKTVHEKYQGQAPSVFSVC

MAP2K1 (human) = MAP2K1 (human) (UniProt Q02750)
WEE1 (human) = WEE1 (human) (UniProt P30291)
HCK (human) = HCK (human) (UniProt P08631)
Chain of HCK (human) (P08631 whole entry, looked up): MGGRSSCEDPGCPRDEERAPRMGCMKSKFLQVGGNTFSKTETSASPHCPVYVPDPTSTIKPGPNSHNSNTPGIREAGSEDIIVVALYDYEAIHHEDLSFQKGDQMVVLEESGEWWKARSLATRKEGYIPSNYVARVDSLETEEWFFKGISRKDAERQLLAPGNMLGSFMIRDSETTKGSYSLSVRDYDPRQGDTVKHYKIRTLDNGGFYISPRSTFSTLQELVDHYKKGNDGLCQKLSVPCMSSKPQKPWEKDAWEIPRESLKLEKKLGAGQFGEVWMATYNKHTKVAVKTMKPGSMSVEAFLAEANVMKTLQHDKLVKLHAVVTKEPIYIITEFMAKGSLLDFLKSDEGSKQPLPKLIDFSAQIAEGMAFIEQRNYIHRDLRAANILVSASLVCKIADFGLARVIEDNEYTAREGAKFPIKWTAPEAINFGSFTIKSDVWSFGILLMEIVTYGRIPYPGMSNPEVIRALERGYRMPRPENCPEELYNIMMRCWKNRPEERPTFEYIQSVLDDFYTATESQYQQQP

FGFR1 (human) = FGFR1 (human) (UniProt P11362)
GSK3B (human) = GSK3B (human) (UniProt P49841)
FES (human) = FES (human) (UniProt P07332)
MKNK2 (human) = MKNK2 (human) (UniProt Q9HBH9)
EPHB2 (human) = EPHB2 (human) (UniProt P29323)
MET (human) = MET (human) (UniProt P08581)
MAPK13 (human) = MAPK13 (human) (UniProt O15264)
PLK2 (human) = PLK2 (human) (UniProt Q9NYY3)
[2] = biological target: JAK1 JH1 catalytic (human) (UniProt P23458)
WNK3 (human) = WNK3 (human) (UniProt Q9BYP7)

| Compound | residual activity (CAMKK1 (human)) | residual activity (VRK1 (human)) | residual activity (PTK2B (human)) | residual activity (PRKG1 (human)) | residual activity (FGFR3 (human)) | residual activity (AKT3 (human)) | residual activity (BMX (human)) | residual activity (PNCK (human)) | residual activity (ABL2 (human)) | residual activity (SRPK1 (human)) | residual activity (LIMK1 (human)) | residual activity (DYRK4 (human)) | residual activity (EPHA1 (human)) | residual activity (DCLK2 (human)) | residual activity (AURKB (human)) | residual activity (CSNK2A2 (human)) | residual activity (PASK (human)) | residual activity (NUAK2 (human)) | residual activity (PIM3 (human)) | residual activity (CSNK1G1 (human)) | also measured |
| --- | --- | --- | --- | --- | --- | --- | --- | --- | --- | --- | --- | --- | --- | --- | --- | --- | --- | --- | --- | --- | --- |
| CN(C)c1ccc(/C=C2\C(=O)Nc3ccccc32)cc1 | 98.6% | 89% | 94.5% | 86.9% and 99.7% | 96.3% | 103% | 92.2% | 102% | 100% | 95.4% | 97.7% | 94.8% | 93.7% | 100% | 61.4% | 98.6% | 95% | 94.3% | 102% | 93% | residual activity (FYN (human)): 104%; residual activity (STK16 (human)): 87.9%; residual activity (GSG2 (human)): 88.5%; residual activity (FRK (human)): 102%; residual activity [1]: 103%; residual activity (MAP2K1 (human)): 97.8%; residual activity (WEE1 (human)): 88.6%; residual activity (HCK (human)): 110%; residual activity (FGFR1 (human)): 92%; residual activity (GSK3B (human)): 111%; residual activity (FES (human)): 97.8%; residual activity (MKNK2 (human)): 90.5%; residual activity (EPHB2 (human)): 86.5%; residual activity (MET (human)): 101%; residual activity (MAPK13 (human)): 97.1%; residual activity (PLK2 (human)): 111%; residual activity [2]: 105%; residual activity (WNK3 (human)): 98.1% |
| COc1ccc2c(c1)c(C1=C(c3c[nH]c4ccccc34)C(=O)NC1=O)cn2CCCN(C)C | 94.8% | 76.7% | 104% | 79.4% and 99.5% | 87.5% | 63.7% | 96.3% | 103% | 77.7% | 116% | 81.8% | 97.3% | 76.2% | 84.8% | 88.5% | 99.3% | 83.8% | 81% | 5.01% | 84.1% | residual activity (FYN (human)): 110%; residual activity (STK16 (human)): 93.1%; residual activity (GSG2 (human)): 93.5%; residual activity (FRK (human)): 91.3%; residual activity [1]: 126%; residual activity (MAP2K1 (human)): 85%; residual activity (WEE1 (human)): 85.1%; residual activity (HCK (human)): 111%; residual activity (FGFR1 (human)): 59%; residual activity (GSK3B (human)): 32%; residual activity (FES (human)): 120%; residual activity (MKNK2 (human)): 81.1%; residual activity (EPHB2 (human)): 78.7%; residual activity (MET (human)): 85.6%; residual activity (MAPK13 (human)): 108%; residual activity (PLK2 (human)): 103%; residual activity [2]: 100%; residual activity (WNK3 (human)): 92% |
| NC(=O)c1cccc(-c2cc(Nc3ccc(OC(F)(F)F)cc3)ncn2)c1 | 103% | 97.9% | 94.6% | 92.9% and 98.4% | 93.2% | 93.5% | 107% | 109% | 106% | 98% | 100% | 96.3% | 90.1% | 104% | 96.9% | 92.7% | 100% | 87.8% | 88.6% | 97.8% | residual activity (STK16 (human)): 81.8%; residual activity (GSG2 (human)): 105%; residual activity (FRK (human)): 95.5%; residual activity [1]: 82.7%; residual activity (MAP2K1 (human)): 95.5%; residual activity (WEE1 (human)): 98.9%; residual activity (HCK (human)): 92.9%; residual activity (FGFR1 (human)): 96.9%; residual activity (GSK3B (human)): 110%; residual activity (FES (human)): 96.3%; residual activity (MKNK2 (human)): 95.4%; residual activity (EPHB2 (human)): 102%; residual activity (MET (human)): 135%; residual activity (MAPK13 (human)): 98.1%; residual activity (PLK2 (human)): 98%; residual activity [2]: 98.9%; residual activity (WNK3 (human)): 105% |
